Experimental data published in patent US4162938A, “Antibiotic compound” (Bristol-Myers Company, priority 1978, dated 1979).
≈ marks a conversion by molar mass, not a printed value. Read-outs that look alike come from different tables or passages of the source.

What was measured:
Candida albicans A-9540 = assay: MIC, standard tube dilution procedure; assay type: cell-based
Description: (§1) The in vitro minimum inhibitory concentrations (MIC) of rudolphomycin were determined for a number of microorganisms using the standard tube dilution procedure.

Candida krusei A-15052 = assay: MIC, standard tube dilution procedure; assay type: cell-based
Description: as §1

[1] = system: Candida tropicalis A-15051; assay: MIC, standard tube dilution procedure; assay type: cell-based
Description: as §1

[2] = system: Cryptococcus neoformans A-15053; assay: MIC, standard tube dilution procedure; assay type: cell-based
Description: as §1

[3] = system: Enterobacter cloacae A-9659; assay: MIC, standard tube dilution procedure; assay type: cell-based
Description: as §1

Escherichia coli A-15119 = assay: MIC, standard tube dilution procedure; assay type: cell-based
Description: as §1

[4] = system: Escherichia coli A-20341-1; assay: MIC, standard tube dilution procedure; assay type: cell-based
Description: as §1

[5] = system: Klebsiella pneumoniae A-15130; assay: MIC, standard tube dilution procedure; assay type: cell-based
Description: as §1

Microsporum canis A-9872 = assay: MIC, standard tube dilution procedure; assay type: cell-based
Description: as §1

Proteus mirabilis A-9900 = assay: MIC, standard tube dilution procedure; assay type: cell-based
Description: as §1

Proteus vulgaris A-9716 = assay: MIC, standard tube dilution procedure; assay type: cell-based
Description: as §1

[6] = system: Pseudomonas aeruginosa A-9843A; assay: MIC, standard tube dilution procedure; assay type: cell-based
Description: as §1

[7] = system: Serratia marcescens A-20019; assay: MIC, standard tube dilution procedure; assay type: cell-based
Description: as §1

[8] = system: Staphylococcus aureus A-9537; assay: MIC, standard tube dilution procedure; assay type: cell-based
Description: as §1

[9] = system: Staphylococcus aureus A-9606; assay: MIC, standard tube dilution procedure; assay type: cell-based
Description: as §1

[10] = system: Streptococcus faecalis A-20688; assay: MIC, standard tube dilution procedure; assay type: cell-based
Description: as §1

[11] = system: Streptococcus pneumoniae A-9585; assay: MIC, standard tube dilution procedure; assay type: cell-based
Description: as §1

[12] = system: Streptococcus pyogenes A-9604; assay: MIC, standard tube dilution procedure; assay type: cell-based
Description: as §1

[13] = system: Trichophyton mentagrophytes A-9870; assay: MIC, standard tube dilution procedure; assay type: cell-based
Description: as §1

L-1210 leukemia = assay type: in vivo, mouse (BDF1 female)
Description: The compound of the present invention was also tested against the transplantable mouse tumor L-1210 lymphatic leukemia which is responsive to anthracycline-type antitumor agents.
Tumor inoculum: 10^6 ascites cells implanted i.p.
Host: BDF1 .female. mice
Evaluation: MST = median survival time
Effect: % T/C = MST treated/MST control × 100
Criteria: T/C ≥ 125 considered significant antitumor effect.

L1210 mouse leukemia = assay: Activity of chromatographic bands on L1210 mouse leukemia system; assay type: in vivo; conditions: Example 4 bands
P388 mouse leukemia = assay: Activity of chromatographic bands on P388 mouse leukemia system; assay type: in vivo; conditions: Example 4 bands
[14] = Biological activity of chromatographic fractions of bohemic acid complex (test not specified); conditions: Example 5, large scale LH-20
[15] = day 1 (1 inj.), 0.4 mg./kg./inj.
[16] = day 1 (1 inj.), 0.8 mg./kg./inj.
[17] = day 1 (1 inj.), 1.6 mg./kg./inj.
[18] = day 1 (1 inj.), 3.2 mg./kg./inj.
[19] = day 1 (1 inj.), 6.4 mg./kg./inj.
[20] = day 1 (1 inj.), 12.8 mg./kg./inj.
[21] = days 1, 4, 7 (3 inj.), 0.2 mg./kg./inj.
[22] = days 1, 4, 7 (3 inj.), 0.4 mg./kg./inj.
[23] = days 1, 4, 7 (3 inj.), 0.8 mg./kg./inj.
[24] = days 1, 4, 7 (3 inj.), 1.6 mg./kg./inj.
[25] = days 1, 4, 7 (3 inj.), 3.2 mg./kg./inj.
[26] = days 1, 4, 7 (3 inj.), 6.4 mg./kg./inj.
[27] = days 1→5 (5 inj.), 0.1 mg./kg./inj.
[28] = days 1→5 (5 inj.), 0.2 mg./kg./inj.
[29] = days 1→5 (5 inj.), 0.4 mg./kg./inj.
[30] = days 1→5 (5 inj.), 0.8 mg./kg./inj.
[31] = days 1→5 (5 inj.), 1.6 mg./kg./inj.
[32] = days 1→5 (5 inj.), 3.2 mg./kg./inj.
[33] = days 1→9 (9 inj.), 0.05 mg./kg./inj.
[34] = days 1→9 (9 inj.), 0.1 mg./kg./inj.
[35] = days 1→9 (9 inj.), 0.2 mg./kg./inj.
[36] = days 1→9 (9 inj.), 0.4 mg./kg./inj.
[37] = days 1→9 (9 inj.), 0.8 mg./kg./inj.
[38] = days 1→9 (9 inj.), 1.6 mg./kg./inj.

CC[C@@]1(O)C[C@H](O[C@H]2C[C@H](N(C)C)[C@H](O[C@H]3C[C@H](O)[C@H](O[C@@H]4O[C@@H](C)C(=O)C=C4N)[C@@H](C)O3)[C@@H](C)O2)c2c(cc3c(c2O)C(=O)c2c(O)ccc(O)c2C3=O)[C@H]1C(=O)OC [Rudolphomycin]
MIC (Candida albicans A-9540): > 125 µg/mL | MIC (Candida krusei A-15052): > 125 µg/mL | MIC [1]: > 125 µg/mL | MIC [2]: 63 µg/mL (≈ 74.9 µM) | MIC [3]: > 63 µg/mL | MIC (Escherichia coli A-15119): > 63 µg/mL | MIC [4]: > 63 µg/mL | MIC [5]: > 63 µg/mL | MIC (Microsporum canis A-9872): > 125 µg/mL | MIC (Proteus mirabilis A-9900): > 63 µg/mL | MIC (Proteus vulgaris A-9716): > 63 µg/mL | MIC [6]: > 63 µg/mL | MIC [7]: > 63 µg/mL | MIC [8]: 2 µg/mL (≈ 2.38 µM) | MIC [9]: 8 µg/mL (≈ 9.51 µM) | MIC [10]: 4 µg/mL (≈ 4.76 µM) | MIC [11]: 0.25 µg/mL (≈ 0.297 µM) | MIC [12]: 0.5 µg/mL (≈ 0.595 µM) | MIC [13]: > 125 µg/mL | MST % T/C (L-1210 leukemia; [15]): 114% | MST (median survival time) (L-1210 leukemia; [15]): 8.0 days | MST % T/C (L-1210 leukemia; [16]): 114% | MST (median survival time) (L-1210 leukemia; [16]): 8.0 days | MST % T/C (L-1210 leukemia; [17]): 114% | MST (median survival time) (L-1210 leukemia; [17]): 8.0 days | MST % T/C (L-1210 leukemia; [18]): 143% | MST (median survival time) (L-1210 leukemia; [18]): 10.0 days | MST % T/C (L-1210 leukemia; [19]): 143% | MST (median survival time) (L-1210 leukemia; [19]): 10.0 days | MST % T/C (L-1210 leukemia; [20]): 143% | MST (median survival time) (L-1210 leukemia; [20]): 10.0 days | MST % T/C (L-1210 leukemia; [21]): 114% | MST (median survival time) (L-1210 leukemia; [21]): 8.0 days | MST % T/C (L-1210 leukemia; [22]): 114% | MST (median survival time) (L-1210 leukemia; [22]): 8.0 days | MST % T/C (L-1210 leukemia; [23]): 136% | MST (median survival time) (L-1210 leukemia; [23]): 9.5 days | MST % T/C (L-1210 leukemia; [24]): 143% | MST (median survival time) (L-1210 leukemia; [24]): 10.0 days | MST % T/C (L-1210 leukemia; [25]): 100% | MST (median survival time) (L-1210 leukemia; [25]): 7.0 days | MST % T/C (L-1210 leukemia; [26]): 129% | MST (median survival time) (L-1210 leukemia; [26]): 9.0 days | MST % T/C (L-1210 leukemia; [27]): 114% | MST (median survival time) (L-1210 leukemia; [27]): 8.0 days | MST % T/C (L-1210 leukemia; [28]): 129% | MST (median survival time) (L-1210 leukemia; [28]): 9.0 days | MST % T/C (L-1210 leukemia; [29]): 129% | MST (median survival time) (L-1210 leukemia; [29]): 9.0 days | MST % T/C (L-1210 leukemia; [30]): 143% | MST (median survival time) (L-1210 leukemia; [30]): 10.0 days | MST % T/C (L-1210 leukemia; [31]): 129% | MST (median survival time) (L-1210 leukemia; [31]): 9.0 days | MST % T/C (L-1210 leukemia; [32]): 129% | MST (median survival time) (L-1210 leukemia; [32]): 9.0 days | MST % T/C (L-1210 leukemia; [33]): 114% | MST (median survival time) (L-1210 leukemia; [33]): 8.0 days | MST % T/C (L-1210 leukemia; [34]): 107% | MST (median survival time) (L-1210 leukemia; [34]): 7.5 days | MST % T/C (L-1210 leukemia; [35]): 129% | MST (median survival time) (L-1210 leukemia; [35]): 9.0 days | MST % T/C (L-1210 leukemia; [36]): 129% | MST (median survival time) (L-1210 leukemia; [36]): 9.0 days | MST % T/C (L-1210 leukemia; [37]): 129% | MST (median survival time) (L-1210 leukemia; [37]): 9.0 days | MST % T/C (L-1210 leukemia; [38]): 107% | MST (median survival time) (L-1210 leukemia; [38]): 7.5 days

CC[C@@]1(O)C[C@H](O[C@H]2C[C@H](N(C)C)[C@H](O[C@H]3C[C@H](O)[C@H](O)[C@H](C)O3)[C@H](C)O2)c2c(cc3c(c2O)C(=O)c2c(O)ccc(O)c2C3=O)[C@H]1C(=O)OC [musettamycin]
activity on L1210 mouse leukemia (L1210 mouse leukemia): highly active | activity on P388 mouse leukemia (P388 mouse leukemia): highly active | activity of chromatographic fraction [14]: active
